Test systems include SK-MEL-28 melanoma; UO-31 renal; MOLT-4 leukemia; HCT-116 colon; NCI/ADR-RES ovarian; EKVX NSCLC; T-47D breast; U251 CNS; UACC-257 melanoma; ACHN renal; 786-0 renal; SW-620 colon; OVCAR-8 ovarian; HCT-15 colon; SN12C renal; OVCAR-3 ovarian; M14 melanoma.
What all share (assay): NCI anticancer screen, dose series, 48 h

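Test compounds were applied to cells in 96-well plates for 48 hours at 5 doses. TGI is the concentration that stops growth completely.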 Bounds are passed on as bounds.

Consider `N#CC(=C1CCN(CCCC(=O)c2ccc(F)cc2)CC1)c1ccccc1`, for which the TGI in the experiment with SK-MEL-28 melanoma, in the experiment on UO-31 renal, in the experiment on MOLT-4 leukemia, in the experiment on HCT-116 colon, in the experiment with NCI/ADR-RES ovarian and in the experiment on EKVX NSCLC was greater than 100 µM in each case. The TGI in the experiment on T-47D breast, in the experiment with U251 CNS, in the experiment on UACC-257 melanoma, in the experiment on ACHN renal, in the experiment with 786-0 renal and in the experiment on SW-620 colon was greater than 100 µM each time. The TGI in the experiment on OVCAR-8 ovarian, with HCT-15 colon and in the experiment on SN12C renal was greater than 100 µM each time.
On to `Clc1cc(Cl)cc(C=NC23CC4CC(CC(C4)C2)C3)c1`, for which the TGI in the experiment on SK-MEL-28 melanoma, with OVCAR-3 ovarian, in the experiment with MOLT-4 leukemia, with M14 melanoma, in the experiment on HCT-116 colon and in the experiment with NCI/ADR-RES ovarian was greater than 10 µM each time. Moreover, the TGI in the experiment with EKVX NSCLC, in the experiment on T-47D breast, in the experiment on U251 CNS, with UACC-257 melanoma, with ACHN renal and with 786-0 renal was greater than 10 µM throughout. For the same compound, the TGI in the experiment with SW-620 colon, in the experiment on OVCAR-8 ovarian, with HCT-15 colon and in the experiment with SN12C renal was greater than 10 µM each time.
Regarding `C[C@@H](c1ccccc1)N1CN(C(=O)OCc2ccccc2)C(C)(C)CC1=O`, the TGI with SK-MEL-28 melanoma, in the experiment with OVCAR-3 ovarian, with MOLT-4 leukemia, with M14 melanoma, in the experiment on HCT-116 colon and with NCI/ADR-RES ovarian was greater than 100 µM in each case. The TGI with EKVX NSCLC, with T-47D breast, with U251 CNS, in the experiment with UACC-257 melanoma, in the experiment on ACHN renal and with 786-0 renal was greater than 100 µM in each case. For the same compound, the TGI in the experiment with SW-620 colon, in the experiment on OVCAR-8 ovarian, in the experiment with HCT-15 colon and with SN12C renal was greater than 100 µM each time.
In the case of `CC(=O)O[C@H]1C(=O)[C@@]2(C)[C@H]([C@H](OC(=O)c3ccccc3)[C@]3(O)C[C@H](OC(=O)[C@H](O)[C@@H](NC(=O)c4cccc(N=[N+]=[N-])c4)c4ccccc4)C(C)=C1C3(C)C)[C@]1(OC(C)=O)CO[C@@H]1C[C@@H]2O`, the TGI in the experiment with SK-MEL-28 melanoma was greater than 22.8 µM; with UO-31 renal it was greater than 25 µM; with MOLT-4 leukemia it was 1.12 µM; with M14 melanoma, 3.23 µM; with NCI/ADR-RES ovarian, greater than 25 µM; with EKVX NSCLC it was greater than 25 µM. For the same compound, the TGI in the experiment with T-47D breast was greater than 25 µM; in the experiment with U251 CNS, 0.635 µM; with ACHN renal, greater than 25 µM; in the experiment with 786-0 renal, greater than 25 µM; in the experiment with SW-620 colon it was greater than 25 µM; in the experiment with OVCAR-8 ovarian, greater than 25 µM. Moreover, the TGI in the experiment on HCT-15 colon and in the experiment with SN12C renal was greater than 25 µM each time.
For `Cc1nn(C(=O)c2ccc(Cl)cc2)c2c1C(c1ccccc1[N+](=O)[O-])SC(N)=N2` (configuration not stated), the TGI in the experiment with OVCAR-3 ovarian, in the experiment on MOLT-4 leukemia, in the experiment with M14 melanoma, in the experiment with HCT-116 colon, in the experiment with NCI/ADR-RES ovarian and in the experiment on EKVX NSCLC was greater than 10 µM throughout. Also, the TGI with T-47D breast, in the experiment with U251 CNS, in the experiment on UACC-257 melanoma, with ACHN renal, with 786-0 renal and in the experiment on SW-620 colon was greater than 10 µM each time. For the same compound, the TGI in the experiment on OVCAR-8 ovarian, in the experiment with HCT-15 colon and in the experiment with SN12C renal was greater than 10 µM throughout.
In the case of `CCOP(=O)(OCC)C(C)(CC)N/C(=N/C(NC(C)=O)(C(F)(F)F)C(F)(F)F)NC1=NC(C(F)(F)F)(C(F)(F)F)N=C(C(F)(F)F)O1` (configuration not stated), the TGI in the experiment with SK-MEL-28 melanoma was greater than 100 µM; with OVCAR-3 ovarian it was greater than 100 µM; in the experiment on MOLT-4 leukemia, 45.3 µM; with M14 melanoma it was 64.7 µM; with HCT-116 colon, greater than 100 µM; in the experiment with NCI/ADR-RES ovarian it was 47.4 µM. Moreover, the TGI in the experiment on EKVX NSCLC was greater than 100 µM; with T-47D breast, greater than 100 µM; with U251 CNS it was greater than 100 µM; with UACC-257 melanoma it was 94.8 µM; with ACHN renal, greater than 100 µM; with 786-0 renal, greater than 100 µM. For the same compound, the TGI in the experiment with SW-620 colon, with OVCAR-8 ovarian, with HCT-15 colon and in the experiment with SN12C renal was greater than 100 µM throughout.
As to `CC(=O)O[C@H]1[C@@H]2OC(=O)[C@@](O)(CC3CCCO3)[C@@H]2CC(=O)[C@](C)(O)CC/C=C(\C)CCC[C@@H]1C` (some centres not stated), the TGI was 44.5 µM with SK-MEL-28 melanoma; greater than 100 µM with UO-31 renal; greater than 100 µM in the experiment on OVCAR-3 ovarian; greater than 100 µM in the experiment with M14 melanoma; greater than 100 µM in the experiment with NCI/ADR-RES ovarian; greater than 100 µM in the experiment with EKVX NSCLC. For the same compound, the TGI was greater than 100 µM in the experiment with T-47D breast; greater than 100 µM in the experiment with U251 CNS; greater than 100 µM in the experiment with UACC-257 melanoma; greater than 100 µM in the experiment with ACHN renal; greater than 100 µM in the experiment with 786-0 renal; 49.2 µM in the experiment with SW-620 colon. Besides, the TGI with OVCAR-8 ovarian, in the experiment with HCT-15 colon and in the experiment on SN12C renal was greater than 100 µM in each case.

Values taken from PubChem BioAssay (NCI).
